The assay relates to TFEB. In words: TFEB nuclear translocation assay, HeLa wt cells. The conditions noted are these: 2 hrs compound treatment, Table 1 does not say HeLa wt or TRPML1 KO. In kind it is cell-based. An outline of the steps:
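Cells are plated overnight, exposed to compounds for 2 hrs at 37° C, fixed with 4% PFA, blocked, and stained overnight at 4° C with rabbit anti-TFEB. After Alexa 488 secondary and Hoechst, nuclei and a perinuclear ring are segmented to give a nuclear:ring intensity ratio and AC50.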

Our source for the AC50 values is patent publication US20230104936A1, “TRPML MODULATORS” (Casma Therapeutics, Inc., priority 2019, published 2023).

Usually AC50 stands for the concentration at which the activity in the assay is half-maximal. Lower therefore signals activity at low concentration. For the compound `COCC1(C)CCN(c2ccccc2NS(=O)(=O)C2=Cc3ccccc3OCC2)CC1` [Compound A-624, N-{2-[4-(methoxymethyl)-4-methylpiperidin-1-yl]phenyl}-2,3-dihydro-1-benzoxepine-4-sulfonamide], the AC50 (Homo sapiens, HeLa, 2 h) is 2010 to 8000 nM.
`CC(c1cccc(F)c1N1CCCCC1)S(=O)(=O)c1ccc(S2(=O)=NCCC2)cc1` (single isomer, unassigned) [Compound A-991, 1-(4-((1-(3-fluoro-2-(piperidin-1-yl)phenyl)ethyl)sulfonyl)phenyl)-4,5-dihydro-3H-isothiazole 1-oxide] yielded an AC50 of 2010 to 8000 nM.
On to `COCC1(C)CCN(c2ccccc2NS(=O)(=O)c2ccc(C(C)(C)C)cc2)CC1` [Compound A-483, 4-tert-butyl-N-{2-[4-(methoxymethyl)-4-methylpiperidin-1-yl]phenyl}benzene-1-sulfonamide], for which, under “Homo sapiens, HeLa, 2 h”, the AC50 was at most 2000 nM.
On the same count and under the same terms, the result for `Cc1ccc(S(=O)(=O)Nc2ccccc2N2CCC(c3ccc(Cl)cc3F)CC2)cc1` [Compound A-72, N-{2-[4-(4-chloro-2-fluorophenyl)piperidin-1-yl]phenyl}-4-methylbenzene-1-sulfonamide] reads at most 2000 nM; that for `CN(C)S(=O)(=O)c1ccc(S(=O)(=O)Nc2ccccc2N2CCN(c3ccc(Cl)cc3F)CC2=O)cc1` [Compound A-283, N4-{2-[4-(4-chloro-2-fluorophenyl)-2-oxopiperazin-1-yl]phenyl}-N1,N1-dimethylbenzene-1,4-disulfonamide], at least 10000 nM; that for `Cc1ccc(N2CCOCC2)c(NS(=O)(=O)c2ccc(S(=O)(=O)N(C)C)cc2)c1` [Compound A-757, N1,N1-dimethyl-N4-[5-methyl-2-(morpholin-4-yl)phenyl]benzene-1,4-disulfonamide], at most 2000 nM.
The same measure, in the same setting: the figure for `CN(C)S(=N)(=O)c1ccc(S(=O)(=O)Nc2cccc(F)c2N2CCC(CN3CC4CCC(C3)O4)CC2)cc1` (centres unmarked) [Compound A-844, 4-({3-fluoro-2-[4-({8-oxa-3-azabicyclo[3.2.1]octan-3-yl}methyl)piperidin-1-yl]phenyl}sulfamoyl)-N,N-dimethylbenzene-1-sulfonoimidamide] is at most 2000 nM; for `CC1(C)CC2(CCN(c3ccccc3NS(=O)(=O)c3ccc4c(c3)CC(C)(C)C4=O)CC2)CO1` [Compound A-638, N-(2-{3,3-dimethyl-2-oxa-8-azaspiro[4.5]decan-8-yl}phenyl)-2,2-dimethyl-1-oxo-2,3-dihydro-1H-indene-5-sulfonamide] it is 2010 to 8000 nM.
The same measure, in the same setting: the result for `CN(C)S(=O)(=O)c1ccc(S(=O)(=O)Nc2cccc(F)c2N2CCC(N3CCC4(CCOC4)C3)CC2)cc1` (centres unmarked) [Compound A-874, N4-[3-fluoro-2-(4-{2-oxa-7-azaspiro[4.4]nonan-7-yl}piperidin-1-yl)phenyl]-N1,N1-dimethylbenzene-1,4-disulfonamide] reads 2010 to 8000 nM; that for `Cc1cnc(N2CCC(CN3CCC(F)(F)CC3)CC2)c(NS(=O)(=O)c2ccc(S(=O)(=O)N(C)C)cc2)c1` [Compound A-952, N4-(2-{4-[(4,4-difluoropiperidin-1-yl)methyl]piperidin-1-yl}-5-methylpyridin-3-yl)-N1,N1-dimethylbenzene-1,4-disulfonamide], at most 2000 nM.
For the compound `CN(C)S(=O)(=O)c1ccc(S(=O)(=O)Nc2cccc(F)c2N2CCC(C)(N)CC2)cc1` [Compound A-899, N4-[2-(4-amino-4-methylpiperidin-1-yl)-3-fluorophenyl]-N1,N1-dimethylbenzene-1,4-disulfonamide], under “Homo sapiens, HeLa, 2 h”, the AC50 is at least 10000 nM.
On the same count and under the same terms, the result for `CN(C)S(=O)(=O)c1ccc(S(=O)(=O)Nc2ccccc2N2CCN(C(C)(C)C)CC2)cc1` [Compound A-337, N4-[2-(4-tert-butylpiperazin-1-yl)phenyl]-N1,N1-dimethylbenzene-1,4-disulfonamide] reads 8010 to 9990 nM.
`CC1(C)CC2(CCN(c3ccccc3NS(=O)(=O)c3ccc4c(c3)CCOC4)CC2)CO1` [Compound A-726, N-(2-{3,3-dimethyl-2-oxa-8-azaspiro[4.5]decan-8-yl}phenyl)-3,4-dihydro-1H-2-benzopyran-6-sulfonamide] registered an AC50 (Homo sapiens, HeLa, 2 h) of 2010 to 8000 nM.
Still for that read-out and setting: the figure for `O=S(=O)(Nc1cccnc1N1CCN(c2ncc(Cl)cc2F)CC1)c1ccc(OC(F)(F)F)cc1` [Compound A-116, N-{2-[4-(5-chloro-3-fluoropyridin-2-yl)piperazin-1-yl]pyridin-3-yl}-4-(trifluoromethoxy)benzene-1-sulfonamide] is at least 10000 nM; for `COCC1(C)CCN(c2ccccc2NS(=O)(=O)Cc2ccc3c(c2)COC3)CC1` [Compound A-612, 1-(1,3-dihydro-2-benzofuran-5-yl)-N-{2-[4-(methoxymethyl)-4-methylpiperidin-1-yl]phenyl}methanesulfonamide] it is 2010 to 8000 nM; for `CS(=O)(=O)c1ccc(S(=O)(=O)Nc2ccccc2N2CCC3(CC2)CN(C(=O)OC2CCOC2)c2cc(F)ccc23)cc1` (centres unmarked) [Compound A-469, oxolan-3-yl 6-fluoro-1′-[2-(4-methanesulfonylbenzenesulfonamido)phenyl]-1,2-dihydrospiro[indole-3,4′-piperidine]-1-carboxylate] it is at most 2000 nM.
In the case of `Cc1ccc(S(=O)(=O)Nc2ccccc2N2CCN(C(=O)C(C)c3ccccc3)CC2)cc1` (centres unmarked) [Compound A-334, 4-methyl-N-{2-[4-(2-phenylpropanoyl)piperazin-1-yl]phenyl}benzene-1-sulfonamide], the AC50 (Homo sapiens, HeLa, 2 h) is 2010 to 8000 nM.
Turning to `CN(C)S(=O)(=O)c1ccc(S(=O)(=O)Nc2ccccc2N2CCN(CC(F)F)CC2)cc1` [Compound A-552, N4-{2-[4-(2,2-difluoroethyl)piperazin-1-yl]phenyl}-N1,N1-dimethylbenzene-1,4-disulfonamide], where the note is “Homo sapiens, HeLa, 2 h”, the AC50 is at most 2000 nM.
With `CN(C)S(=O)(=O)c1ccc(S(=O)(=O)Nc2ccccc2N2CC3CC2CN3c2ccc(Cl)cc2F)cc1` (centres unmarked) [Compound A-31, N4-{2-[5-(4-chloro-2-fluorophenyl)-2,5-diazabicyclo[2.2.1]heptan-2-yl]phenyl}-N1,N1-dimethylbenzene-1,4-disulfonamide], under “Homo sapiens, HeLa, 2 h”, the AC50 was at most 2000 nM.
As to `COCCCC1CCN(c2ccccc2NS(=O)(=O)c2ccc(S(=O)(=O)N(C)C)cc2)CC1` [Compound A-496, N4-{2-[4-(3-methoxypropyl)piperidin-1-yl]phenyl}-N1,N1-dimethylbenzene-1,4-disulfonamide], where the note is “Homo sapiens, HeLa, 2 h”, the half-maximal activity concentration (AC50) is at most 2000 nM.
In the case of `CC(c1cccc(F)c1N1CCC(CN2C3CCC2COC3)CC1)S(=O)(=O)c1ccc(S(C)(=O)=O)cc1` (single isomer, unassigned) [Compound A-914, 8-((1-(2-fluoro-6-(1-((4-(methylsulfonyl)phenyl)sulfonyl)ethyl)phenyl)piperidin-4-yl)methyl)-3-oxa-8-azabicyclo[3.2.1]octane], the AC50 is at least 10000 nM.
In turn, `CN(C)S(=O)(=O)c1ccc(S(=O)(=O)Nc2ccccc2N2CCN(C(=O)C3CC34CC4)CC2)cc1` (centres unmarked) [Compound A-462, N1,N1-dimethyl-N4-[2-(4-{spiro[2.2]pentane-1-carbonyl}piperazin-1-yl)phenyl]benzene-1,4-disulfonamide] displayed an AC50 (Homo sapiens, HeLa, 2 h) of 2010 to 8000 nM.
On to `CC(c1ccccc1N1CCC(c2c(F)cccc2F)CC1)S(=O)(=O)c1ccc(S(=O)(=O)N(C)C)cc1` (centres unmarked) [Compound A-254, 4-((1-(2-(4-(2,6-difluorophenyl)piperidin-1-yl)phenyl)ethyl)sulfonyl)-N,N-dimethylbenzenesulfonamide], for which the half-maximal activity concentration (AC50) (Homo sapiens, HeLa, 2 h) is at most 2000 nM.
Still for that read-out and setting: the figure for `Cc1nocc1S(=O)(=O)Nc1ccccc1N1CCN(c2ccc(Cl)cc2F)CC1` [Compound A-35, N-{2-[4-(4-chloro-2-fluorophenyl)piperazin-1-yl]phenyl}-3-methyl-1,2-oxazole-4-sulfonamide] is at least 10000 nM; for `COCC1(C)CCN(c2ccccc2NS(=O)(=O)Cc2cccc3c2COC3)CC1` [Compound A-607, 1-(1,3-dihydro-2-benzofuran-4-yl)-N-{2-[4-(methoxymethyl)-4-methylpiperidin-1-yl]phenyl}methanesulfonamide] it is 2010 to 8000 nM; for `CN(C)S(=O)(=O)c1ccc(S(=O)(=O)n2ccc(C3CCN(c4ncc(Cl)cc4F)CC3)n2)cc1` [Compound A-96, 4-((3-(1-(5-chloro-3-fluoropyridin-2-yl)piperidin-4-yl)-1H-pyrazol-1-yl)sulfonyl)-N,N-dimethylbenzenesulfonamide] it is at least 10000 nM.
On the same count and under the same terms, the result for `CC(C)Oc1ccc(S(=O)(=O)Nc2cccc(Cl)c2N2CCOCC2)cc1` [Compound A-457, N-[3-chloro-2-(morpholin-4-yl)phenyl]-4-(propan-2-yloxy)benzene-1-sulfonamide] reads 2010 to 8000 nM; that for `O=S(=O)(Nc1cc(Cl)ccc1N1CC23CCC2(COC3)C1)c1ccc2c(c1)CCC2` (centres unmarked) [Compound A-344, N-(5-chloro-2-{3-oxa-7-azatricyclo[3.3.2.0^1,^5]decan-7-yl}phenyl)-2,3-dihydro-1H-indene-5-sulfonamide], 2010 to 8000 nM; that for `CS(=O)(=O)c1ccc(S(=O)(=O)Nc2ccccc2N2CCC(c3ccc(Cl)cc3F)CC2)cc1` [Compound A-98, N-{2-[4-(4-chloro-2-fluorophenyl)piperidin-1-yl]phenyl}-4-methanesulfonylbenzene-1-sulfonamide], at most 2000 nM.
For `CC(c1cccc(F)c1N1CCCCC1)S(=O)(=O)c1ccc(S(=N)(=O)C(F)F)cc1` (single isomer, unassigned) [Compound A-938, (difluoromethyl)(4-((1-(3-fluoro-2-(piperidin-1-yl)phenyl)ethyl)sulfonyl)phenyl)(imino)-l6-sulfanone], the half-maximal activity concentration (AC50) was at least 10000 nM.
Compound `CS(=O)(=O)c1ccc(S(=O)(=O)Nc2ccccc2N2CCC3(CC2)CN(Cc2ccncc2)c2cc(F)ccc23)cc1` [Compound A-403, N-(2-{6-fluoro-1-[(pyridin-4-yl)methyl]-1,2-dihydrospiro[indole-3,4′-piperidin]-1′-yl}phenyl)-4-methanesulfonylbenzene-1-sulfonamide] displayed an AC50 (Homo sapiens, HeLa, 2 h) of 2010 to 8000 nM.
On the same count and under the same terms, the figure for `COc1cc(S(=O)(=O)Nc2ccccc2N2CCN(c3ccc(Cl)cc3F)CC2)ccn1` [Compound A-34, N-{2-[4-(4-chloro-2-fluorophenyl)piperazin-1-yl]phenyl}-2-methoxypyridine-4-sulfonamide] is at most 2000 nM.
